± gives the expanded uncertainty stated by the source.
Assays:
[1] = 101 kPa, Liquid; for viscosity: Capillary tube (Ostwald / Ubbelohde) method; for mass density: Vibrating tube method
[2] = xn = mol fraction of the nth substance listed; details: 101 kPa, Liquid; for viscosity: Capillary tube (Ostwald / Ubbelohde) method; for mass density: Vibrating tube method

NCCO [2-aminoethan-1-ol]
viscosity ([1]; 298.15 K): 19.9 ± 0.28 mPa·s | mass density ([1]; 298.15 K): 1012 ± 1 kg/m3 | viscosity ([1]; 313.15 K): 9.61 ± 0.23 mPa·s | mass density ([1]; 313.15 K): 1000 ± 1 kg/m3 | viscosity ([1]; 323.15 K): 6.72 ± 0.21 mPa·s | mass density ([1]; 323.15 K): 992 ± 1 kg/m3 | viscosity ([1]; 343.15 K): 3.69 ± 0.2 mPa·s | mass density ([1]; 343.15 K): 976 ± 1 kg/m3 | viscosity ([1]; 353.15 K): 2.85 ± 0.2 mPa·s | mass density ([1]; 353.15 K): 968 ± 1 kg/m3

NCCO [2-aminoethan-1-ol] + O
viscosity ([2]; 298.15 K, x1 = 0.06867): 1.7 ± 0.2 mPa·s | viscosity ([2]; 298.15 K, x1 = 0.1122): 2.48 ± 0.21 mPa·s | viscosity ([2]; 298.15 K, x1 = 0.1643): 3.58 ± 0.22 mPa·s | viscosity ([2]; 298.15 K, x1 = 0.2278): 5.51 ± 0.23 mPa·s | viscosity ([2]; 298.15 K, x1 = 0.4076): 12.46 ± 0.29 mPa·s | viscosity ([2]; 298.15 K, x1 = 0.7264): 19.4 ± 0.3 mPa·s | mass density ([2]; 298.15 K, x1 = 0.06867): 1005 ± 5 kg/m3 | mass density ([2]; 298.15 K, x1 = 0.1122): 1011 ± 4 kg/m3 | mass density ([2]; 298.15 K, x1 = 0.1643): 1016 ± 4 kg/m3 | mass density ([2]; 298.15 K, x1 = 0.2278): 1021 ± 4 kg/m3 | mass density ([2]; 298.15 K, x1 = 0.4076): 1026 ± 2 kg/m3 | mass density ([2]; 298.15 K, x1 = 0.7264): 1020 ± 1 kg/m3 | viscosity ([2]; 313.15 K, x1 = 0.06867): 1.18 ± 0.2 mPa·s | viscosity ([2]; 313.15 K, x1 = 0.1122): 1.67 ± 0.2 mPa·s | viscosity ([2]; 313.15 K, x1 = 0.1643): 2.28 ± 0.21 mPa·s | viscosity ([2]; 313.15 K, x1 = 0.2278): 3.39 ± 0.21 mPa·s | viscosity ([2]; 313.15 K, x1 = 0.4076): 6.96 ± 0.24 mPa·s | viscosity ([2]; 313.15 K, x1 = 0.7264): 10.2 ± 0.24 mPa·s | mass density ([2]; 313.15 K, x1 = 0.06867): 999 ± 5 kg/m3 | mass density ([2]; 313.15 K, x1 = 0.1122): 1003 ± 4 kg/m3 | mass density ([2]; 313.15 K, x1 = 0.1643): 1008 ± 4 kg/m3 | mass density ([2]; 313.15 K, x1 = 0.2278): 1012 ± 3 kg/m3 | mass density ([2]; 313.15 K, x1 = 0.4076): 1016 ± 2 kg/m3 | mass density ([2]; 313.15 K, x1 = 0.7264): 1008 ± 1 kg/m3 | viscosity ([2]; 323.15 K, x1 = 0.06867): 0.95 ± 0.2 mPa·s | viscosity ([2]; 323.15 K, x1 = 0.1122): 1.33 ± 0.2 mPa·s | viscosity ([2]; 323.15 K, x1 = 0.1643): 1.75 ± 0.2 mPa·s | viscosity ([2]; 323.15 K, x1 = 0.2278): 2.54 ± 0.21 mPa·s | viscosity ([2]; 323.15 K, x1 = 0.4076): 4.94 ± 0.22 mPa·s | viscosity ([2]; 323.15 K, x1 = 0.7264): 7.06 ± 0.22 mPa·s | mass density ([2]; 323.15 K, x1 = 0.06867): 994 ± 5 kg/m3 | mass density ([2]; 323.15 K, x1 = 0.1122): 998 ± 4 kg/m3 | mass density ([2]; 323.15 K, x1 = 0.1643): 1002 ± 4 kg/m3 | mass density ([2]; 323.15 K, x1 = 0.2278): 1005 ± 3 kg/m3 | mass density ([2]; 323.15 K, x1 = 0.4076): 1008 ± 2 kg/m3 | mass density ([2]; 323.15 K, x1 = 0.7264): 1001 ± 1 kg/m3 | viscosity ([2]; 343.15 K, x1 = 0.06867): 0.67 ± 0.2 mPa·s | viscosity ([2]; 343.15 K, x1 = 0.1122): 0.92 ± 0.2 mPa·s | viscosity ([2]; 343.15 K, x1 = 0.1643): 1.14 ± 0.2 mPa·s | viscosity ([2]; 343.15 K, x1 = 0.2278): 1.57 ± 0.2 mPa·s | viscosity ([2]; 343.15 K, x1 = 0.4076): 2.79 ± 0.21 mPa·s | viscosity ([2]; 343.15 K, x1 = 0.7264): 3.81 ± 0.21 mPa·s | mass density ([2]; 343.15 K, x1 = 0.06867): 983 ± 5 kg/m3 | mass density ([2]; 343.15 K, x1 = 0.1122): 986 ± 4 kg/m3 | mass density ([2]; 343.15 K, x1 = 0.1643): 989 ± 4 kg/m3 | mass density ([2]; 343.15 K, x1 = 0.2278): 992 ± 3 kg/m3 | mass density ([2]; 343.15 K, x1 = 0.4076): 993 ± 2 kg/m3 | mass density ([2]; 343.15 K, x1 = 0.7264): 985 ± 1 kg/m3 | viscosity ([2]; 353.15 K, x1 = 0.06867): 0.58 ± 0.2 mPa·s | viscosity ([2]; 353.15 K, x1 = 0.1122): 0.77 ± 0.2 mPa·s | viscosity ([2]; 353.15 K, x1 = 0.1643): 0.95 ± 0.2 mPa·s | viscosity ([2]; 353.15 K, x1 = 0.2278): 1.28 ± 0.2 mPa·s | viscosity ([2]; 353.15 K, x1 = 0.4076): 2.18 ± 0.2 mPa·s | viscosity ([2]; 353.15 K, x1 = 0.7264): 2.93 ± 0.2 mPa·s | mass density ([2]; 353.15 K, x1 = 0.06867): 977 ± 5 kg/m3 | mass density ([2]; 353.15 K, x1 = 0.1122): 979 ± 4 kg/m3 | mass density ([2]; 353.15 K, x1 = 0.1643): 982 ± 4 kg/m3 | mass density ([2]; 353.15 K, x1 = 0.2278): 984 ± 3 kg/m3 | mass density ([2]; 353.15 K, x1 = 0.4076): 985 ± 2 kg/m3 | mass density ([2]; 353.15 K, x1 = 0.7264): 976 ± 1 kg/m3

Reference: the NIST ThermoML archive (doi:10.1021/je900188m)
